SMILES strings stand for the structures.

The target of assay [1] is CDK19/CycC (Homo sapiens, UniProt Q9BWU1). Nature of the assay: LanthaScreen europium kinase binding assay (FRET displacement), CDK19. The following applies: for CDK19 Selectivity: CDK19/CDK8 selectivity based on IC50 values; for IC50: his-tagged CDK19/CycC 5 nM, tracer 10 nM, 3 h incubation. The method, then:
(§1) FRET Displacement Assay to Measure IC50: The CDK19/CDK8 IC50 values were measured to evaluate activity and to determine CDK19/CDK8 selectivity. The IC50 values of the disclosed compounds was measured using a LanthaScreen™ europium kinase binding assay (ThermoFisher), as described herein.
To a kinase buffer cocktail solution (i.e., 5× Kinase Buffer A) was added: purified recombinant his-tagged CDK19/CycC protein (5 nM), ATP-competitive kinase inhibitor scaffold kinase tracer Alexa Fluor® 665 (10 nM), biotin anti-his tag antibody (2 nM), LanthaScreen® europium-streptavidin (2 nM). An aliquot of the cocktail solution (10 μL) was added to each well of a LUMITRAC™ 200:384 flat bottom, non-treated microtiter white plate. The plate was then covered to protect light sensitive reagents and incubated for 30 min at room temperature to equilibrate before addition of any inhibitors.
(§2) A serial dilution of the compounds was titrated into each well using an automated liquid handling Staccato integrated system at the following concentration(s) (Log10 Molar [C]): −4.5, −5.0, −5.5, −6.0, −6.5, −7.0, −7.5, −8.0 so that a complete dose-response could be calculated. A Tecan microplate reader infinite m200 instrument was then used to measure the FRET signal of each individual well using an excitation of 317/20 nm, emission europium of 620/12 nm, and emission kinase tracer of 665/12 nm after a 3 h incubation period at room temperature until steady-state kinetics were achieved.
(§3) Results were performed in duplicate and were repeated a total of 3 independent times before data was normalized to the DMSO control group and IC50 values reported.
For orientation: Time-resolved FRET reads energy transfer from a long-lived donor to a nearby acceptor.

In assay [2] the target is CDK8 (Homo sapiens, UniProt P49336). Nature of the assay: LanthaScreen europium kinase binding assay (FRET displacement), CDK8. The protocol: as §1
[…] An aliquot of the cocktail solution (10 μL) was added to each well of a LUMITRAC™ 200:384 flat bottom, non-treated microtiter white plate. The plate was then covered to protect light sensitive reagents and incubated for 30 min at room temperature to equilibrate before addition of any inhibitors.
as §2, §3

Sequence of CDK19/CycC (Q9BWU1 whole entry): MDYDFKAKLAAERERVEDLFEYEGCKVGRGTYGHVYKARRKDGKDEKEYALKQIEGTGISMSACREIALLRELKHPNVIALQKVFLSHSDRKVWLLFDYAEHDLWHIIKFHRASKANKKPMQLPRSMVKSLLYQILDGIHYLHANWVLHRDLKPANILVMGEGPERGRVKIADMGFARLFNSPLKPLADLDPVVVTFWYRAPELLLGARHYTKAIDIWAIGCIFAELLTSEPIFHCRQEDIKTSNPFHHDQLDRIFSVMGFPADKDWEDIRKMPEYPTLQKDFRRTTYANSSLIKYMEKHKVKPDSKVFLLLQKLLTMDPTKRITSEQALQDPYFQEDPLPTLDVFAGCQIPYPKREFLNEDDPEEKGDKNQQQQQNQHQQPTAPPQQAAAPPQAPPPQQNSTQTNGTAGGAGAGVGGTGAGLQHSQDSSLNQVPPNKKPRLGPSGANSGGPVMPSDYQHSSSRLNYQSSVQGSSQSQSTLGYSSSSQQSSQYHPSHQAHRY
Sequence of CDK19/CycC (P24863 whole entry partner): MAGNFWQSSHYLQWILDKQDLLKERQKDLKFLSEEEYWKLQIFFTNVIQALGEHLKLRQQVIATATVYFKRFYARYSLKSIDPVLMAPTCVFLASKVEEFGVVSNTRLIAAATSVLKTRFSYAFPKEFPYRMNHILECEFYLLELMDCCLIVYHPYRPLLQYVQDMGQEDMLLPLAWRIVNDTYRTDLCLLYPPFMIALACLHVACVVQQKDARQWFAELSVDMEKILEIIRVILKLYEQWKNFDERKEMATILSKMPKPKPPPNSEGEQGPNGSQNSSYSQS
Sequence of CDK8 (P49336 whole entry): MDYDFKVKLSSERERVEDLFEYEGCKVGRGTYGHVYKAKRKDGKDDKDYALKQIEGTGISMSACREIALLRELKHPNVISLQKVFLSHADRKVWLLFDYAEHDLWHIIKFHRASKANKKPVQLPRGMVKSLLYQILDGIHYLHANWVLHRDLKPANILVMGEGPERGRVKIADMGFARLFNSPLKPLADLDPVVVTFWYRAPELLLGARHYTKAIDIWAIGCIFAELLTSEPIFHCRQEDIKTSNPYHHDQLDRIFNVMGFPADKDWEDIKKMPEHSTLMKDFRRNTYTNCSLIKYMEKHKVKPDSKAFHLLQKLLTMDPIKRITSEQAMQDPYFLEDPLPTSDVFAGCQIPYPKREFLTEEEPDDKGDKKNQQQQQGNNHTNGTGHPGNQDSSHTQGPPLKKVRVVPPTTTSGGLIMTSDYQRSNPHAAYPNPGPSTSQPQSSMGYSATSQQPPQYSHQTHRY
Sequence of CDK8 (P24863 whole entry partner): as the sequence (P24863 whole entry partner) above

`FC(F)(F)Oc1ccc(Nc2ncc(Nc3ccncc3)cn2)cc1` [Compound A145]: in assay [1], the “CDK19 Selectivity” value came to 2 and the concentration for half-maximal inhibition (IC50) (usually the midpoint of a concentration-inhibition curve) came out at 0.036 µM. The IC50 in assay [2] came out at 0.072 µM.
The matching figures for `O=C(c1ccncc1)c1ccc(Nc2ccc(F)cc2)nc1` [Compound A75]: 3.9, 0.296 µM and 1.16 µM.
As to `COc1cnccc1Nc1cnc(Nc2ccc(CC(C)C)cc2F)nc1` [Compound A61], the “CDK19 Selectivity” value in assay [1] amounted to 1. Besides, the IC50 worked out at 0.0076 µM in assay [1] and 0.007 µM in assay [2].
For `CC(C)Cc1ccc(Nc2ncc(-c3ccc(=O)[nH]c3)cn2)cc1` [Compound A100], in that order: 5.1, 0.283 µM and 1.43 µM.
For `COc1cc(CC(C)C)ccc1Nc1ncc(C(=O)c2ccncc2)cn1` [Compound A131], in that order: 1.8, 0.0057 µM and 0.01 µM.
For the compound `CC(C)Cc1cccc(Nc2ncc(Nc3cccnc3)cn2)c1` [Compound A31], the IC50 in assay [1] stood at 9.03 µM; in assay [2], 9.93 µM.
As to `CC(C)Cc1ccc(Nc2ncc(C(=O)c3ccncc3)cn2)cc1` [Compound A70], in assay [1], the “CDK19 Selectivity” value is on record as not below 18. For the same compound, the IC50 was not above 0.0025 µM in assay [1] and 0.046 µM in assay [2].
For `Cc1cc(Nc2cnc(Nc3ccc(C4CC4)cc3)nc2)ccn1` [Compound A17], in that order: 2.8, 0.419 µM and 1.16 µM.
For `CC(C)Cc1ccc(Nc2ncc(C(=O)c3ccncc3OC3CCCC3)cn2)cc1` [Compound A170], in that order: 2, 0.004 µM and 0.007 µM.
The matching figures for `Cc1cnc(F)cc1Nc1cnc(Nc2ccc(CC(C)C)cc2)nc1` [Compound A150]: 2, 0.023 µM and 0.05 µM.
Take `c1cc(Nc2cnc(Nc3ccc(C4CCOCC4)cc3)nc2)c(OC2CCCC2)cn1` [Compound A180]: the IC50 in assay [1] stood at 0.004 µM; in assay [2], 0.006 µM.
`CC(C)Cc1ccc(Nc2ncc(C(C)(O)c3ccncc3)cn2)cc1` (stereo not drawn) [Compound A167]: in assay [1], the “CDK19 Selectivity” value was determined as 4 and the IC50 was 0.154 µM. In assay [2], the IC50 was 0.614 µM.
Consider `CC(C)Cc1ccc(Nc2ccc(-c3ccccc3)cn2)cc1` [Compound A76], for which, in assay [1], the “CDK19 Selectivity” value is listed as 3. In addition, the IC50 turned out to be 1.72 µM in assay [1] and 5.1 µM in assay [2].
For `Cc1cnccc1Nc1cnc(Nc2ccc(C3CCC3)cc2)nc1` [Compound A147], in that order: 1, 0.013 µM and 0.015 µM.
The matching figures for `Cc1cc(CC(C)C)ccc1Nc1ncc(C(=O)c2ccncc2)cn1` [Compound A128]: 3.8, 0.0089 µM and 0.034 µM.
Regarding `O=C(c1cnc(Nc2ccc(C3CCOCC3)cc2)nc1)c1ccncc1OC1CCCC1` [Compound A179], the “CDK19 Selectivity” value in assay [1] is not above 1. Besides, the IC50 in assay [1] and in assay [2] was not above 0.0025 µM each time.
Consider `Cc1cnc2ccccc2c1Nc1cnc(Nc2ccc(CC(C)C)cc2)nc1` [Compound A12], for which, in assay [1], the “CDK19 Selectivity” value came to 0.9 and the IC50 turned out to be 0.038 µM. This compound returned an IC50 in assay [2] of 0.034 µM.
Regarding `Fc1ccc(Nc2ccc(Oc3ccncc3)cn2)cc1` [Compound A81], the IC50 in assay [1] and in assay [2] was 10 µM in each case.
In the case of `CC(C)Cc1ccc(Nc2ncc(C(=O)c3ccncc3C3CC3)cn2)cc1` [Compound A72], in assay [1], the “CDK19 Selectivity” value is not below 14 and the IC50 was not above 0.0025 µM. The IC50 in assay [2] worked out at 0.034 µM.
As for `CC(C)Cc1ccc(Nc2ncc(Nc3ccncc3NC3CCCC3)cn2)cc1` [Compound A163], in assay [1], the “CDK19 Selectivity” value is 1 and the IC50 is 0.076 µM. For the same compound, the 50% inhibitory concentration (IC50) in assay [2] came out at 0.075 µM.
The matching figures for `CC(C)Cc1ccc(Nc2ncc(NC(=O)c3ccncc3)cn2)cc1` [Compound A48, N-(2-((4-isobutylphenyl)amino)pyrimidin-5-yl) isonicotinamide]: 5.3, 1.55 µM and 8.22 µM.
For `CC(C)Cc1ccc(Nc2ccc(-c3cccnc3)cn2)cc1` [Compound A82], in that order: 1.5, 0.131 µM and 0.193 µM.
Regarding `Cc1cnccc1Nc1cnc(Nc2ccc(C3CCCCC3)cc2)nc1` [Compound A148], in assay [1], the “CDK19 Selectivity” value stood at 1 and the IC50 is 0.018 µM. The same compound showed an IC50 in assay [2] of 0.017 µM.
For `CCCc1ccc(Nc2ncc(Nc3ccncc3)cn2)cc1` [Compound A14], in that order: 3.3, 0.029 µM and 0.096 µM.
The matching figures for `Cc1cccc(-c2cnc(Nc3ccc(CC(C)C)cc3)nc2)c1` [Compound A86]: 9, 1.11 µM and 10 µM.
In the case of `CC(C)Cc1ccc(Nc2ncc(C(=O)c3ccncc3F)cn2)cc1` [Compound A116], in assay [1], the “CDK19 Selectivity” value came to 1.9 and the IC50 was not above 0.0025 µM. In assay [2], this compound showed an IC50 of 0.0041 µM.
For `CC(C)Cc1ccc(Nc2ncc(Nc3ccnc(C4CC4)c3)cn2)cc1` [Compound A173], in that order: 5, 0.052 µM and 0.244 µM.
Consider `CC(C)Cc1ccc(Nc2ncc(-c3ccccc3)cn2)cc1` [Compound A102], for which, in assay [1], the “CDK19 Selectivity” value is reported as 1 and the IC50 is 10 µM. Besides, the IC50 in assay [2] is 10 µM.
As for `CC(C)Cc1ccc(Nc2ncc(-c3cc(C#N)ccn3)cn2)cc1` [Compound A96], in assay [1], the “CDK19 Selectivity” value is recorded as 9 and the IC50 was determined as 1.11 µM. Also, the IC50 in assay [2] came to 10 µM.
As to `O=C(c1ccncc1)c1cnc(Nc2ccc(F)cc2)nc1` [Compound A69], in assay [1], the “CDK19 Selectivity” value was found to be 1.9. Further, the figures for the IC50 in assay [1] and in assay [2] were 1.41 µM and 2.67 µM, respectively.
For `CC(C)Cc1ccc(Nc2ncc(-c3ccncc3)cn2)cc1` [Compound A99], in that order: 5.6, 1.8 µM and 10 µM.
For `CC(C)Cc1ccc(Nc2ncc(Nc3ccncc3Cl)cn2)cc1` [Compound A57], in that order: 2, not above 0.0025 µM and 0.003 µM.
For `Cc1ccc(-c2cnc(Nc3ccc(CC(C)C)cc3)nc2)cc1` [Compound A103], in that order: 1.3, 7.68 µM and 10 µM.
On to `Fc1ccc(Nc2ncc(Oc3ccncc3)cn2)cc1` [Compound A142], for which, in assay [1], the “CDK19 Selectivity” value turned out to be 1 and the 50% inhibitory concentration (IC50) worked out at 10 µM. For the same compound, the IC50 in assay [2] was determined as 10 µM.
`Cc1cnccc1Nc1cnc(Nc2ccc(CC(C)C)cc2F)nc1` [Compound A59]: in assay [1], the “CDK19 Selectivity” value is listed as 2 and the IC50 stood at 0.011 µM. The IC50 in assay [2] stood at 0.023 µM.
Take `CC(C)Cc1ccc(Nc2ncc(Nc3ccncc3OC3CCCCC3)cn2)cc1` [Compound A54]: the “CDK19 Selectivity” value in assay [1] amounted to 0.8. Further, the figures for the half-maximal inhibitory concentration (IC50) in assay [1] and in assay [2] were 0.045 µM and 0.035 µM, respectively.

For the origin of these results see US20240351996A1, “CDK19-SELECTIVE INHIBITORS, AND METHODS OF USE THEREOF” (CZ BIOHUB SF, LLC, priority 2022, published 2024).
